Here are results for two molecules from US20130210061A1, “Method of Screening Damp-Dry Malodor Inhibitor and Method of Evaluating Damp-Dry Malodor Inhibitor” (KAO CORPORATION, priority 2010, published 2013).

Holding throughout (assay): Example 1: quantification of 4M3H on cotton fabric with 14-methylhexadecanoic acid
In assay [1] the test system is P. alcaligenes No. 41. The format is cell-based, Pseudomonas alcaligenes. As to conditions: 37° C., 24 hours, vs sterilized water. The method, then: (§1) 10 mL of methanol was added to the towel that had been left to stand still for 24 hours, and 1 mL of the methanol was mixed with 1 mL of ADAM (9-anthrydiazomethanene, manufactured by Funakoshi Corp., 0.1 w/v %). The mixture was left to stand for 60 minutes at room temperature, and thus derivatization was carried out.
(§2) Thereafter, 10 μL of the solution was analyzed by using LC-FL (liquid chromatography apparatus: HITACHI ELITE LaChrom (trade name, manufactured by Hitachi, Ltd.), column: Lichrosphere 100 RP-8(e) (trade name, manufactured by Agilent Technologies, Inc., 5 μm×125 mm×4 mmφ), column temperature: 40° C., eluent a mixed solution of acetonitrile/water=7/3 (volume ratio), flow rate: 1.0 mL/min, detector: excitation wavelength (365 nm), measurement wavelength (412 nm)), and thereby quantification of 4M3H thus produced was carried out. In regard to the amount of production of 4M3H, a sample which produced 4M3H in an amount of more than 1 μg was rated as “[…]”; a sample which produced 4M3H in an amount of more than 0.1 μg and 1 μg or less was rated as “∘”; a sample which produced 4M3H in an amount of more than 0 μg and 0.1 μg or less was rated as “Δ”; and a sample in which no 4M3H was detected was rated as “x”.
(§3) One platinum loop of each of Moraxella osloensis NCIMB10693, Moraxella sp. 4-1, Psychrobacter pacificensis NBRC103191, Psychrobacter glacincola NCIMB101053, Pseudomonas alcaligenes No. 41, Acinetobacter calcoaceticus HH2BD-49, Saccaromyces cerevisiae NBRC1661, Rhodotorula mucilaginosa NBRC0909 and Rhodotorula slooffiae 13c was inoculated into 5 mL of a SCD liquid medium (manufactured by Nihon Pharmaceutical Co., Ltd.), and the microbial cells were subjected to shaking culture (160 rpm) at 35° C. for 24 hours. The microbial cells obtained after culture were centrifuged (8000×g, 10 minutes), the supernatant was removed, and then the microbial cells were suspended in 5 mL of physiological saline. The suspension was centrifuged again (8000×g, 10 minutes), subsequently the supernatant was removed, and a microbial suspension was prepared by using physiological saline such that the OD600 would be 0.1.
(§4) Furthermore, 0.1 mL each of 10-ppm or 100-ppm aqueous solutions of the compounds shown in the following Table 6 was applied on the fabric described above. As a control, a fabric on which sterilized water was applied instead of the compounds described below was also prepared.
(§5) On a plain-woven cotton fabric prepared as described above, 0.1 mL each of the various microbial suspensions was inoculated, and the samples were left to stand still under humidified conditions at 37° C. for 24 hours and were subjected to an evaluation such as described below.
(§6) Quantification of 4M3H was carried out by the same method as that used in Test Example 3, and by taking as a reference the 4M3H production amount of a sample on which sterilized water was applied as a test substance, the 4M3H production amounts in the case of applying other test substances were evaluated on the basis of the following criteria. • A: (4M3H production amount in the case of applying a test substance)<( 1/100 of the 4M3H production amount in the case of applying sterilized water) • B: ( 1/100 of the 4M3H production amount in the case of applying sterilized water)≦(4M3H production amount in the case of applying a test substance)<( 1/10 of the 4M3H production amount in the case of applying sterilized water) • C: ( 1/10 of the 4M3H production amount in the case of applying sterilized water)≦(4M3H production amount in the case of applying a test substance)<(4M3H production amount in the case of applying sterilized water) • D: (4M3H production amount in the case of applying sterilized water)≦(4M3H production amount in the case of applying a test substance)

For assay [2], the system named is P. glacincola NBRC101053. Type of assay: cell-based, Psychrobacter glacincola. As to conditions: 37° C., 24 hours, vs sterilized water. The method, then:
as §1, §2, §3, §4, §5, §6

Assay [3] deals with R. muculaginosa NBRC0909. The format is cell-based, Rhodotorula mucilaginosa. Conditions: 37° C., 24 hours, vs sterilized water. The method, then: as §1, §2, §3, §4, §5, §6
Assay [4] relates to P. pacificensis NBRC103191. Type of assay: cell-based, Psychrobacter pacificensis. As to conditions: 37° C., 24 hours, vs sterilized water. The method, then:
as §1, §2, §3, §4, §5, §6

Assay [5] relates to Moraxella sp. 4-1. Type of assay: cell-based. Conditions: 37° C., 24 hours, vs sterilized water. The method, then:
as §1, §2, §3, §4, §5, §6

Assay [6] deals with S. cerevisiae NBRC1661. The format is cell-based, Saccaromyces cerevisiae. As to conditions: 37° C., 24 hours, vs sterilized water. The method, then: as §1, §2, §3, §4, §5, §6
Assay [7] concerns A. calcoaceticus HH2BD-49. Type of assay: cell-based, Acinetobacter calcoaceticus. Conditions: 37° C., 24 hours, vs sterilized water. The method, then:
as §1, §2, §3, §4, §5, §6

The test system of assay [8] is M. osloensis NCIMB10693. The format is cell-based, Moraxella osloensis. As to conditions: Faucicola osloensis, M. osloensis NCIMB10693, cotton fabric with 14-methylhexadecanoic acid, 37° C., 24 hours, vs sterilized water, read-out: Production amount of 4M3H; for activity at 100 ppm: 100 ppm test substance. The method, then: as §1, §2, §3, §4, §5, §6
Assay [9] relates to R. slooffiae 13c. The format is cell-based, Rhodotorula slooffiae. Conditions: 37° C., 24 hours, vs sterilized water. The method, then:
as §1, §2, §3, §4, §5, §6

Consider `CCCCCCCC/C=C\CCCCCCCC(=O)O` [Oleic acid], for which the “Production amount of 4M3H” value in [1] (100 ppm test substance) was “C (( 1/10 of the 4M3H production amount in the case of applying sterilized water)≦(4M3H production amount in the case of applying a test substance)<(4M3H production amount in the case of applying sterilized water))”; in assay [2] (100 ppm test substance), “A ((4M3H production amount in the case of applying a test substance)<( 1/100 of the 4M3H production amount in the case of applying sterilized water))”; in [3] (100 ppm test substance), “B (( 1/100 of the 4M3H production amount in the case of applying sterilized water)≦(4M3H production amount in the case of applying a test substance)<( 1/10 of the 4M3H production amount in the case of applying sterilized water))”; in assay [4] (100 ppm test substance), “C (( 1/10 of the 4M3H production amount in the case of applying sterilized water)≦(4M3H production amount in the case of applying a test substance)<(4M3H production amount in the case of applying sterilized water))”; in assay [5] (100 ppm test substance), “B (( 1/100 of the 4M3H production amount in the case of applying sterilized water)≦(4M3H production amount in the case of applying a test substance)<( 1/10 of the 4M3H production amount in the case of applying sterilized water))”; in assay [6] (100 ppm test substance) it was “B (( 1/100 of the 4M3H production amount in the case of applying sterilized water)≦(4M3H production amount in the case of applying a test substance)<( 1/10 of the 4M3H production amount in the case of applying sterilized water))”. The “Production amount of 4M3H” value in assay [7] (100 ppm test substance) and in assay [9] (100 ppm test substance) was “C (( 1/10 of the 4M3H production amount in the case of applying sterilized water)≦(4M3H production amount in the case of applying a test substance)<(4M3H production amount in the case of applying sterilized water))” throughout. In assay [8], the activity at 100 ppm is 1 to 10%.

As to `Cc1ccc(C(C)C)c(O)c1` [Thymol], the “Production amount of 4M3H” value in assay [1] (10 ppm test substance) was “D ((4M3H production amount in the case of applying sterilized water)≦(4M3H production amount in the case of applying a test substance))”; in assay [1] (100 ppm test substance) it was “C (( 1/10 of the 4M3H production amount in the case of applying sterilized water)≦(4M3H production amount in the case of applying a test substance)<(4M3H production amount in the case of applying sterilized water))”; in assay [2] (10 ppm test substance), “C (( 1/10 of the 4M3H production amount in the case of applying sterilized water)≦(4M3H production amount in the case of applying a test substance)<(4M3H production amount in the case of applying sterilized water))”; in [2] (100 ppm test substance), “B (( 1/100 of the 4M3H production amount in the case of applying sterilized water)≦(4M3H production amount in the case of applying a test substance)<( 1/10 of the 4M3H production amount in the case of applying sterilized water))”; in assay [3] (10 ppm test substance), “D ((4M3H production amount in the case of applying sterilized water)≦(4M3H production amount in the case of applying a test substance))”; in [3] (100 ppm test substance) it was “A ((4M3H production amount in the case of applying a test substance)<( 1/100 of the 4M3H production amount in the case of applying sterilized water))”. Besides, the “Production amount of 4M3H” value in assay [4] (10 ppm test substance) is on record as “D ((4M3H production amount in the case of applying sterilized water)≦(4M3H production amount in the case of applying a test substance))”; in assay [4] (100 ppm test substance) it was “B (( 1/100 of the 4M3H production amount in the case of applying sterilized water)≦(4M3H production amount in the case of applying a test substance)<( 1/10 of the 4M3H production amount in the case of applying sterilized water))”; in assay [5] (10 ppm test substance), “C (( 1/10 of the 4M3H production amount in the case of applying sterilized water)≦(4M3H production amount in the case of applying a test substance)<(4M3H production amount in the case of applying sterilized water))”; in assay [5] (100 ppm test substance) it was “B (( 1/100 of the 4M3H production amount in the case of applying sterilized water)≦(4M3H production amount in the case of applying a test substance)<( 1/10 of the 4M3H production amount in the case of applying sterilized water))”; in [6] (10 ppm test substance), “C (( 1/10 of the 4M3H production amount in the case of applying sterilized water)≦(4M3H production amount in the case of applying a test substance)<(4M3H production amount in the case of applying sterilized water))”; in assay [6] (100 ppm test substance), “D ((4M3H production amount in the case of applying sterilized water)≦(4M3H production amount in the case of applying a test substance))”. Besides, the “Production amount of 4M3H” value is reported as “D ((4M3H production amount in the case of applying sterilized water)≦(4M3H production amount in the case of applying a test substance))” in assay [7] (10 ppm test substance), “C (( 1/10 of the 4M3H production amount in the case of applying sterilized water)≦(4M3H production amount in the case of applying a test substance)<(4M3H production amount in the case of applying sterilized water))” in assay [7] (100 ppm test substance), “D ((4M3H production amount in the case of applying sterilized water)≦(4M3H production amount in the case of applying a test substance))” in assay [9] (10 ppm test substance) and “C (( 1/10 of the 4M3H production amount in the case of applying sterilized water)≦(4M3H production amount in the case of applying a test substance)<(4M3H production amount in the case of applying sterilized water))” in assay [9] (100 ppm test substance). In assay [8] (10 ppm test substance), the activity at 10 ppm was 1 to 10%. Also, the activity at 100 ppm in [8] is below 1%.
